The text below walks through data of patent US6369101B1, “Therapeutic method to treat herpes virus infection” (Regents of the University of Minnesota, priority 1999, dated 2002).

Values after ≈ are worked out from the molar mass of the structure shown. “Also recorded” adds a separate entry of the source.

One data set relates to HSV-2 strain MS. In words: CPE inhibition assay, HSV-2 MS in human foreskin fibroblast cells. On Qualitative CPE at 2.0 ml dose HSV-2 MS: key: +++ = Complete cytopathic effect; ++ = Moderate cytopathic effect; + = Minimum cytopathic effect; − = No cytopathic effect. The format is cell-based, herpes simplex virus type 2. The method, then: (§1) Stock solutions of the compounds used for the testing of antiviral activity against HSV-1 and HSV-2 were prepared in distilled water, filtered through 0.2 μm filter (Acrodisco®, Gelman Sciences, USA) and stored at room temperature until used.
(§2) Human laryngeal epithelial carcinoma cells (HEp-2, ATCC, Rockville, Md.) were used for testing of antiviral compounds by cytopathic effect (CPE) inhibition and plaque reduction assay. Primary human foreskin fibroblast cells (HFF) obtained from Dr. E. R. Kern (Department of Pediatrics, University of Alabama Medical School, 309 Bevill Biomedical Research Building, 845 19th Street South, Birmingham, Ala., 35294-2170), were used for cytopathic effect (CPE) inhibition assay. HEp-2, African green monkey kidney cells (Vero, ATCC), HFF and primary rabbit kidney cells were used to determine the cytotoxic effect of compounds of formula I. These cells were propagated in Dulbeco's modified Eagle's medium (DMEM) (Sigma, USA) supplemented with 10% inactivated fetal calf serum (FCS), 25 mM HEPES, 0.2% sodium bicarbonate and 1% penicillin/-streptomycin at 37° C. in the presence of 5% CO2.
(§3) The antiviral activity of the test compounds was determined against HSV-1 strain F, HSV-2 strain G (ATCC), HSV-1 strain E-377 and HSV-2 strain MS (Dr. E. R. Kern, see above), CMV strain AD 169 (NIH), HCMV (NIH), MCMV (NIH), and VZV strain Ellen (NIH). Highly infective virus stocks of HSV-1 and HSV-2 were prepared by infecting a confluent monolayer of HEp-2 (ATCC) or HFF in 150 cm^2 plastic tissue culture flasks (Falcon, USA) at a multiplicity of infection of 0.5 in DMEM supplemented with 10% inactivated fetal calf serum and 1% penicillin/streptomycin at 37° C. in the presence of 5% CO2. The infected cells were disrupted through three freeze/thaw cycles, and viruses were clarified from large cell debris by low speed centrifugation at 3000 rpm for 10 minutes. The virus suspension was separated, aliquoted and stored at −80° C. until assayed or used for animal infection. The stock HSV-1 (E377) and HSV-2 (MS strain) contained 3.5×10^8 and 1.1×10^7 pfu/ml respectively.
(§4) Low passage HFF cells were seeded into 96-well tissue culture plates 24 hours prior to use at a cell concentration of 2.5×10^4 cells per ml in 0.2 ml of DMEM supplemented with 10% fetal calf serum. After 24 hours of incubation at 37° C. in the presence of 5% CO2, medium was removed and the test compounds were diluted two-fold in DMEM in the 96-well tissue culture plate containing monolayer. […] For both HSV-1 and HSV-2 assays, the virus concentration utilized was 1000 pfu/ml and for HCMV, MCMV, and VZV assay 2500 pfu/ml were used. The plates were then incubated at 37° C. in the presence of 5% CO2 for two to three days for HSV-1 and HSV-2, 10 days for VZV and 14 days for HCMV and MCMV. The virus induced cytopathic effect (CPE) was monitored microscopically every day. CPE of HSV-1 was recognized by cell rounding and clumping, while HSV-2 formed large syncytia along with rounding and clumping of cells. […] EC50s were estimated from graphical plots of percent CPE against the concentration of the test compounds. The EC50s for each compound are the mean of EC50s for three or more independent experiments. After three days of incubation period, media was aspirated and the cells stained with a 0.1% crystal violet solution for 30 minutes. The stain was then removed and the plates were rinsed with tap water, air dried and retained.

The test system of the next data set is HSV-2 (strain G). In words: Plaque reduction assay, HSV-2 strain G in HEp-2 cells. The format is cell-based, herpes simplex virus type 2. As to conditions: conc. per compound (ng/ml) (Acyclovir 250), HSV-2 virus control 47. The method, then:
HEp-2 cells were grown to monolayer in 24 well tissue culture plates in DMEM containing 10% fetal calf serum at 37° C. for 24-36 hours in the presence of 5% CO2. The monolayer of HEp-2 cells was infected with 0.1 ml of HSV- 1 (strain F) or HSV-2 (strain G) containing 100 pfu. The viruses were allowed to adsorb for 1 hour at 37° C. in the presence of 5% CO2. All wells containing virus infected cells except virus control were overlaid with 0.9 ml of DMEM and 1 ml of test compound. The virus control and cell control received DMEM only. All microtiter plates were incubated at 37° C. in the presence of 5% CO2 and observed twice daily for 72 hours for viral CPE. At the end of the experiment, plates were stained with 0.1% crystal violet and the results were quantified by counting plaque forming units.

The next data set has as its system HSV-1 strain F. The data set is described as follows: CPE inhibition, HSV-1 strain F in HEp-2 cells. Further: key: +++ = Complete cytopathic effect; ++ = Moderate cytopathic effect; + = Minimum cytopathic effect; − = No cytopathic effect. The format is cell-based, herpes simplex virus type 1. As to conditions: conc. per compound (ng/ml).
Excerpt: as §2, §3, §4

Data set [1] can be described thus: Cell proliferation assay (cytotoxicity) in HFF cells. As to conditions: primary human foreskin fibroblast (HFF) cells; Human foreskin fibroblast cells; reduces growth of uninfected cells by 50%. The format is cell-based, human. The method, then: (§5) Human laryngeal epithelial carcinoma cells (HEp-2, ATCC, Rockville, Md.) were used for testing of antiviral compounds by cytopathic effect (CPE) inhibition and plaque reduction assay. […] HEp-2, African green monkey kidney cells (Vero, ATCC), HFF and primary rabbit kidney cells were used to determine the cytotoxic effect of compounds of formula I. These cells were propagated in Dulbeco's modified Eagle's medium (DMEM) (Sigma, USA) supplemented with 10% inactivated fetal calf serum (FCS), 25 mM HEPES, 0.2% sodium bicarbonate and 1% penicillin/-streptomycin at 37° C. in the presence of 5% CO2.
(§6) HFF, Vero and HEp-2 cells were seeded in 24-well tissue culture plates at a concentration of […] in DMEM containing 10% FCS and incubated for 24 hours at 37° C. in the presence of 5% CO2. To the monolayer of these cells 0.5, 1.0, 1.5 and 2.0 ml of solution of antiviral compounds were added in the respective wells in duplicate and the cells were then incubated in a 5% CO2 incubator at 37° C. for 72 hours. The cells were observed daily for any change in morphology. […] At the end of this time, the media-drug solution was removed and the cells washed. One ml of 0.25% trypsin was added to each well and incubated until the cells start to come off of the plate. The cells-media mixture was then pipetted up and down several times to resuspend the cells and 0.2 ml of the cell suspension was added to 9.8 ml of trypan blue and cells were counted using hemocytometer. Each sample was counted three times with three replicate wells per sample.

The subject of data set [2] is Primary human foreskin fibroblast cells (HFF). The description is as above. The format is cell-based. The conditions noted are these: HFF cells; solution conc. per compound (ng/ml) (Acyclovir 250); 2.0 ml dose. The method, then: as §5, §6
In data set [3] the test system is Human laryngeal epithelial carcinoma cells (HEp-2). In words: Cytotoxicity in HEp-2 cells. The format is cell-based. The method, then: as §5, §6
The nature of data set [4]: Cytotoxic effect in Vero cell line. The format is cell-based, African green monkey. As to conditions: African green monkey, Vero cells; Vero cell line. The method, then: as §5, §6
The next data set concerns Vero cells. In words: Cytotoxic effect in Vero cell line. The format is cell-based, African green monkey. As to conditions: African green monkey kidney (Vero) cells. The method, then:
as §5, §6

The test system of another data set is HSV-1 strain E-377. The data set is described as follows: CPE inhibition assay, HSV-1 E377 in human foreskin fibroblast cells. On Qualitative CPE at 2.0 ml dose HSV-1 E377: key: +++ = Complete cytopathic effect; ++ = Moderate cytopathic effect; + = Minimum cytopathic effect; − = No cytopathic effect. The format is cell-based, herpes simplex virus type 1. The method, then: as §1, §2, §3, §4
A short description of data set [5]: Cytotoxic effect in primary rabbit kidney cells. The format is cell-based. The conditions noted are these: primary rabbit kidney cells; Primary Rabbit Kidney cell line. The method, then:
as §5, §6

In data set [6] the test system is Primary Rabbit Kidney cells. The data set is described as follows: Cytotoxic effect in primary rabbit kidney cells. The format is cell-based. The conditions noted are these: primary rabbit kidney cells. The method, then: as §5, §6
The subject of another data set is HSV-2 strain G. The data set is described as follows: CPE inhibition, HSV-2 strain G in HEp-2 cells. Further: key: +++ = Complete cytopathic effect; ++ = Moderate cytopathic effect; + = Minimum cytopathic effect; − = No cytopathic effect. The format is cell-based, herpes simplex virus type 2. As to conditions: conc. per compound (ng/ml).
Excerpt: as §2, §3, §4

The next data set relates to Human Cytomegalovirus. The data set is described as follows: CPE inhibition in stationary cells (visual), HCMV in HFF cells. As to conditions: Human betaherpesvirus 5, test compounds in DMSO, read-out: EC50. The format is cell-based.
The nature of data set [7]: CC50 in HFF cells (Table 3). The format is cell-based, human. The conditions noted are these: human, HFF cells, Human Cytomegalovirus section of Table 3; read-out: CC50. The method, then: The cells were observed daily for any change in morphology. The rounding and lysis of cells were observed if the compound has cytotoxic effect. At the end of this time, the media-drug solution was removed and the cells washed. […] The cells-media mixture was then pipetted up and down several times to resuspend the cells and 0.2 ml of the cell suspension was added to 9.8 ml of trypan blue and cells were counted using hemocytometer. Each sample was counted three times with three replicate wells per sample.

The subject of another data set is Mouse Cytomegalovirus. The data set is described as follows: CPE inhibition in stationary cells (visual), MCMV in MEF cells. The conditions noted are these: test compounds in DMSO, read-out: EC50. The format is cell-based.
Data set [8] can be described thus: CC50 in MEF cells (Table 3). The format is cell-based. As to conditions: Mouse Cytomegalovirus section of Table 3.
[9] abbreviates: HFF cells, solution conc. per compound (ng/ml) (Acyclovir 250), 2.0 ml dose.

As for `CC1(C)CCC23CC[C@]4(C)C(CCC5[C@@]6(C)CCC(O)C(C)(C)C6CC[C@]54C)C2C1OC3` (stereo partly drawn) [Allobetulin, 3β-hydroxy-19αH-19,28-epoxy-oleanane], in the data set with HSV-2 strain MS (CPE inhibition in HFF cells), the “EC50 HSV-2 MS” value is 0.225 µg/mL (≈ 0.508 µM). In addition, the “Qualitative CPE at 2.0 ml dose HSV-2 MS” value in the data set with HSV-2 strain MS (setting [9]) is recorded as “++”. In addition, the EC50 in the data set with HSV-2 strain MS (Human alphaherpesvirus 2, HFF, CPE inhibition in HFF cells, read-out: EC50 HSV-2 MS) was about 0.225 µg/mL (≈ 0.508 µM); in the data set on HSV-1 strain E-377 (Human alphaherpesvirus 1, HFF, CPE inhibition in HFF cells, read-out: EC50 HSV-1 E377), about 0.3 µg/mL (≈ 0.678 µM). For the same molecule, the “Plaque Reduction Assay Average pfu/10^5 Cells HSV-2 Strain G” value in the data set on HSV-2 (strain G) came to 17 pfu/10^5 Cells. Also, the “Cytopathic Effect (CPE) Inhibition HSV-1 Strain F” value in the data set on HSV-1 strain F is listed as “++”. Further, the CC50 at 72 h in [1] was 0.3 µg/mL (≈ 0.678 µM); in data set [4] it was 0.3 µg/mL (≈ 0.678 µM); in [5] it was over 0.3 µg/mL. Moreover, the “Qualitative Cytotoxic Effect at 2.0 ml dose” value in data set [2] was “−”. Moreover, the entries for the “cytotoxicity (in words)” value (in data set [3] (HEp-2 (human epithelial) cells); in the data set on Vero cells; in data set [6]) were “less cytotoxicity; also recorded: generally not toxic”, “generally not toxic” and “No cytotoxicity; also recorded: generally not toxic”, respectively. For the same molecule, in [3] (HEp-2 cells, conc. per compound (ng/ml)), the “Cell Cytotoxicity” value is recorded as “−”. Further, the “EC50 HSV-1 E377” value in the data set with HSV-1 strain E-377 (CPE inhibition in HFF cells) amounted to 0.3 µg/mL (≈ 0.678 µM). Also, in the data set with HSV-1 strain E-377 (setting [9]), the “Qualitative CPE at 2.0 ml dose HSV-1 E377” value is given as “+++”. In addition, the “Cytopathic Effect (CPE) Inhibition HSV-2 Strain G” value in the data set with HSV-2 strain G is recorded as “++”.

On to `Nc1nc(O)c2ncn(COC(CO)CO)c2n1` [Ganciclovir ®, Ganciclovir, reference compound], for which the half-maximal effective concentration (EC50) in the data set on Human Cytomegalovirus amounted to 0.1 µg/mL (≈ 0.392 µM); with Mouse Cytomegalovirus it was 0.9 µg/mL (≈ 3.53 µM). For the same molecule, in data set [7], the CC50 at 72 h was over 100 µg/mL. In data set [8], this molecule displayed a CC50 of over 100 µg/mL.

The EC50 is the midpoint of the concentration-response curve. In general, CC50 refers to the concentration that lowers cell viability or growth by half.
